Measured values reported in PubChem BioAssay AID623871 (Sanford-Burnham Center for Chemical Genomics, 2012).
Activity calls are given as the source filed them.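 How the source made its calls: active means IC50 at or below 10 µM; inactive means the rest.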

tested on: H9c2 cardiomyoblasts, 2-deoxyglucose injury, ATP luminescence, 2 h; test: protection of H9c2 cells from ATP loss, SAR follow-up, 2-deoxyglucose, ATP luminescence (AID 623871)

Row | Structure (SMILES) | IC50
1 | O=C(C(=O)N1CCCC1)c1c(-c2ccccc2)[nH]c2ccccc12 | > 79 µM (inactive)
2 | COc1ccc2cc(C(=O)N3CCN(S(=O)(=O)c4ccc(C)cc4C)CC3)c(C)nc2c1 | > 79 µM (inactive)
3 | O=C(C(=O)N1CCCCC1)c1c(-c2ccccc2)[nH]c2ccccc12 | > 79 µM (inactive)
4 | COc1ccc2c(c1OC)C(=O)N1c3ccccc3C(=O)N(c3cccc(Br)c3)C21 (centres undefined) | 10.6 µM (inactive)
5 | COc1cccc(CN(C)C(=O)c2cc(-c3ccccc3)nc3ccc(C)cc23)c1OC | > 79 µM (inactive)
6 | CCN(CC)S(=O)(=O)c1cc(C(=O)N2CCN(Cc3cccc4cccnc34)CC2)ccc1C | > 79 µM (inactive)
7 | Cc1ccc(NC(=O)CN(C)C(=O)c2cc(-c3cccs3)nn2-c2ccccc2)cc1 | 27.2 µM (inactive)
8 | Cc1ccc2cc(CN(Cc3cccnc3)S(=O)(=O)c3ccc(F)cc3)c(=O)[nH]c2c1 | > 79 µM (inactive)
9 | COc1ccc2cc(C(=O)N3CCN(S(=O)(=O)c4cc(C)ccc4C)CC3)c(C)nc2c1 | > 79 µM (inactive)
10 | Cc1ccc(-c2[nH]c3ccccc3c2C(=O)C(=O)N(C)C)cc1 | > 79 µM (inactive)
11 | CCN(CC(=O)Nc1ccc(OC)cc1)C(=O)c1cc(-c2cccs2)nn1-c1ccccc1 | 6.24 µM
12 | COc1ccc2c(=O)c(C(=O)N3CCN(S(=O)(=O)c4c(C)cc(C)cc4C)CC3)c[nH]c2c1 | > 79 µM (inactive)
13 | COc1ccc(-c2cc(C(=O)N(C)Cc3ccc(OC)c(OC)c3OC)c3ccccc3n2)cc1OC | 7.31 µM
14 | COc1ccccc1N1C(=O)c2ccccc2N2C(=O)c3c(ccc(OC)c3OC)C12 (centres undefined) | 42.5 µM (inactive)
15 | Cc1ccc(S(=O)(=O)N(Cc2cccnc2)Cc2cc3ccccc3[nH]c2=O)cc1 | > 79 µM (inactive)
16 | COc1cc(-c2cc(C(=O)Nc3cccc(C(C)=O)c3)c3ccccc3n2)cc(OC)c1OC | 10.7 µM (inactive)
17 | COc1ccc(-n2cc(-c3ccccc3)c3c(NCc4ccccc4)ncnc32)cc1 | 13.6 µM (inactive)
18 | NC(=O)c1nsc(C(=O)N(Cc2ccccc2)C(C(=O)NCc2ccc(F)cc2)c2ccc(O)cc2)c1N (centres undefined) | > 79 µM (inactive)
19 | COc1cccc(CN(C)C(=O)c2cc(-c3ccc(OC)c(OC)c3)nc3ccccc23)c1 | 15.1 µM (inactive)
20 | COc1ccc2c(c1OC)C(=O)N1c3ccccc3C(=O)N(c3ccccc3C)C21 (centres undefined) | 36.1 µM (inactive)
21 | Cc1ccc(C)c(S(=O)(=O)N2CCN(C(=O)c3cc4cc(C)ccc4nc3C)CC2)c1 | 46.2 µM (inactive)
22 | O=c1[nH]c2ccccc2cc1CN(Cc1ccco1)S(=O)(=O)c1ccc(F)cc1 | > 79 µM (inactive)

Row | Structure (SMILES) | IC50
23 | Cc1ccc2cc(CN(C)S(=O)(=O)c3ccc(F)cc3)c(=O)[nH]c2c1 | > 79 µM (inactive)
24 | Cc1ccccc1N(C(=O)c1snc(C(N)=O)c1N)C(C(=O)NCc1ccc(F)cc1)c1ccc(O)cc1 (centres undefined) | > 79 µM (inactive)
25 | COc1ccc2c(c1OC)C(=O)N1c3ccccc3C(=O)N(c3ccc(F)cc3)C21 (centres undefined) | 39.4 µM (inactive)
26 | COc1ccc(-c2cc(C(=O)N(C)C)c3ccccc3n2)cc1OC | > 79 µM (inactive)
27 | COc1ccc(S(=O)(=O)N(Cc2cccnc2)Cc2cc3ccccc3[nH]c2=O)cc1 | 53.9 µM (inactive)
28 | COc1cccc(NC(=O)C(Sc2nc3ccccc3c(=O)n2CC(C)C)c2ccccc2)c1 (centres undefined) | 19.5 µM (inactive)
29 | NC(=O)c1nsc(C(=O)N(c2cccc(F)c2)C(C(=O)NC2CCCC2)c2ccc(O)cc2)c1N (centres undefined) | > 79 µM (inactive)
30 | COc1ccc(-n2cc(-c3ccccc3)c3c(N4CCCCC4)ncnc32)cc1 | 10.6 µM (inactive)
31 | CCCN(CC(=O)Nc1ccccc1OC)C(=O)c1cc(-c2cccs2)nn1-c1ccccc1 | > 79 µM (inactive)
32 | COc1ccc(-c2cc(C(=O)NCc3ccccc3)c3ccccc3n2)cc1OC | > 79 µM (inactive)
33 | CCCn1c(SC(C(=O)Nc2cccc(OC)c2)c2ccccc2)nc2ccccc2c1=O (centres undefined) | > 79 µM (inactive)
34 | CCN(CC)C(=O)C(=O)c1c(-c2ccccc2)[nH]c2ccccc12 | > 79 µM (inactive)
35 | COCCNC(=O)C(c1ccc(O)cc1)N(C(=O)c1snc(C(N)=O)c1N)c1ccccc1F (centres undefined) | > 79 µM (inactive)
36 | COc1ccc(N2C(=O)c3ccccc3N3C(=O)c4c(ccc(OC)c4OC)C23)cc1 (centres undefined) | 29.3 µM (inactive)
37 | COc1ccc(-n2cc(-c3ccccc3)c3c(N4CCCC4)ncnc32)cc1 | > 79 µM (inactive)
38 | COc1cccc(NC(=O)CN(C)C(=O)c2cc(-c3cccs3)nn2-c2ccccc2)c1 | > 79 µM (inactive)
39 | COc1ccc(NC(=O)CN(C)C(=O)c2cc(-c3cccs3)nn2-c2ccccc2)cc1 | 38.6 µM (inactive)
40 | O=C1c2ccccc2N2C(=O)c3ccccc3[C@H]2N1c1ccccc1 | 34.3 µM (inactive)
41 | COc1ccc(-c2cc(C(=O)NCc3ccco3)c3ccccc3n2)cc1OC | 39.2 µM (inactive)
42 | COCCn1c(SC(C(=O)Nc2cc(C)ccc2C)c2ccccc2)nc2ccccc2c1=O (centres undefined) | 4.01 µM (inactive)
43 | Cc1ccc(S(=O)(=O)N2CCN(C(=O)c3cc(=O)[nH]c4ccccc34)CC2)cc1C | 33.4 µM (inactive)
44 | CC(C)CCNC(=O)C(c1ccc(O)cc1)N(C(=O)c1snc(C(N)=O)c1N)c1ccccc1F (centres undefined) | > 79 µM (inactive)
